Data: PMC9501810, “Bitter Peptides YFYPEL, [sequence], and [sequence], Released during Gastric Digestion of Casein, Stimulate Mechanisms of Gastric Acid Secretion via Bitter Taste Receptors TAS2R16 and TAS2R38” (Journal of Agricultural and Food Chemistry, 2022)

How the values were obtained:
Format in all cases: cell-based, human
[1] = system: TAS2R46; assay: RT-qPCR gene expression of TAS2R46 in HGT-1 cells; conditions: VAPFPEVF 17.5 µM, YFYPEL 0.03 µM, YQEPVLGPVRGPFPIIV 0.4 µM, normalized to PPIA and GAPDH and untreated cells, mean, n = 3–5
Method: (§1) For mRNA expression analysis, 800,000 cells were seeded in a T25 cell culture flask (25 cm^2) 1 day before the experiment. After incubation with 17.5 μM […], 0.03 μM YFYPEL, or 0.4 μM […] for 15, 30, 60, and 120 min, RNA was isolated using the peqGOLD RNA Kit (VWR Peqlab, USA) following the manufacturer’s protocol. Determination of RNA concentration (A260/A280 between 2.03 and 2.09) was performed on a NanoDrop One^c (Thermo Fisher Scientific Inc., USA). RNA integrity number (RIN 9.9–10.0, version 2.6, assay class Eukaryote Total RNA Nano) was analyzed using a 2100 Bioanalyzer (Agilent Technologies, USA). Removal of gDNA and synthesis of cDNA were performed using the iScript gDNA Clear cDNA Synthesis Kit (BioRad, Feldkirchen, Germany) following the manufacturer’s protocol. Real-time-qPCR (RT-qPCR) was performed with 50 ng cDNA amplified with SsoAdvanced Universal SYBR Green Supermix (Bio-Rad Laboratories, Inc., USA). The sequences of the forward and reverse primers of the 25 TAS2Rs were taken from Liszt et al.([13]) (Supporting Information Table-SI 3). Verified primers for the TAS1Rs (TAS1R1: qHsaCID0013443; TAS1R2: qHsaCID0016106; TAS1R3: qHsaCED0002321) and for MAPK1 (qHsaCEP0050000) were obtained from Bio-Rad Laboratories. PPIA[37] and GAPDH[38] were used as reference genes. The effects of the peptides on gene expression were analyzed in comparison to untreated control cells.

[2] = system: TAS1R3; assay: RT-qPCR gene expression of TAS1R3 in HGT-1 cells
Method: as §1

[3] = system: TAS2R9; assay: RT-qPCR gene expression of TAS2R9 in HGT-1 cells; conditions: VAPFPEVF 17.5 µM, YFYPEL 0.03 µM, YQEPVLGPVRGPFPIIV 0.4 µM, normalized to PPIA and GAPDH and untreated cells, mean, n = 3–5
Method: as §1

[4] = system: TAS2R38; assay: Proton secretion assay in TAS2R38 knock-down vs mock-transfected HGT-1 cells; conditions: TAS2R38kd vs mock-transfected HGT-1 cells, VAPFPEVF 17.5 µM, YFYPEL 0.03 µM, YQEPVLGPVRGPFPIIV 0.4 µM, 10 min, mean ± SEM; for reduction of the peptide-induced stimulation of proton secretion in TAS2R38kd cells: 72 h after 1 nM siRNA; for change of peptide-induced proton secretion, TAS2R38kd (in Figure 5E–G): negative = reduction
Method: The measurement of proton secretion from HGT-1 cells represents a well-established model for the identification of bitter compounds. By affecting extraoral bitter taste receptors with bitter compounds, a modulatory effect on proton secretion can be measured. For this purpose, cells were washed with KRHB and incubated with 3 μM of the intracellular pH indicator 1,5 carboxy-seminaphto-rhodafluor acetoxymethyl ester (SNARF-1-AM) under standard conditions. After 30 min, the cells were washed again with KRHB and then incubated with casein (0.01–10 μM equimolar related to the relevant forms αS1- and β-casein), hydrolysate (0.01–10 μM), or the peptides (0.01–200 μM). […] All substances were dissolved and diluted in KRHB. 1 mM histamine was used as a positive control. Measurements were performed using FlexStation 3 (Molecular Devices, USA). The excitation wavelength was 488 nm, and the emission wavelengths were 580 and 640 nm. For calibration (pH range 7.0–8.0), the intracellular and extracellular pH was adjusted with 2 μM nigericin in potassium buffer (20 mM NaCl, 110 mM KCl, 1 mM CaCl2, 1 mM MgSO4, 18 mM D-glucose, and 20 mM HEPES). The intracellular proton index (IPX) was calculated as the log2 value of the 580/640 ratio and compared with cells without treatment. Negative values represent increased secretion of protons and therefore stimulation of mechanisms regulating gastric acid secretion in HGT-1 cells. In contrast, positive values represent an inhibition of secretion compared to the untreated control.
Expression of TAS2R16 and TAS2R38 was reduced by treatment of HGT-1 cells with siRNA. 100,000 cells per well were seeded 1 day before the experiment into a 24-well plate. All reagents and siRNA were purchased from Thermo Fisher Scientific, USA (cytotoxicity was excluded by MTT). Transfection was performed with Lipofectamine RNAiMAX in Opti-Medium according to the manufacturer’s protocol. 1–50 nM of different siRNA sequences (HSS121396 and HSS181763 for TAS2R16 and HSS108754 and HSS108756 for TAS2R38) and three different incubation times (24, 48, and 72 h) were tested. Mock control experiments were performed analogously with 1 or 10 nM Stealth RNAi siRNA negative control. To verify the functionality of the transfection process, verified 10 nM siRNA targeting MAPK1 (VHS40312) was used (positive control). The transfection rate was checked by qPCR as described in section 2.11. For the proton secretion assays, 20,000 cells per well were seeded 1 day before transfection into a black 96-well plate. After 72 h of transfection, proton secretion activities of TAS2R16 knock-down or TAS2R38 knock-down HGT-1 were compared with the mock transfected cells by means of ΔIPX.

[5] = system: TAS2R43; assay: RT-qPCR gene expression of TAS2R43 in HGT-1 cells; conditions: VAPFPEVF 17.5 µM, YFYPEL 0.03 µM, YQEPVLGPVRGPFPIIV 0.4 µM, normalized to PPIA and GAPDH and untreated cells, mean, n = 3–5
Method: as §1

[6] = system: TAS2R1; assay: RT-qPCR gene expression of TAS2R1 in HGT-1 cells; conditions: VAPFPEVF 17.5 µM, YFYPEL 0.03 µM, YQEPVLGPVRGPFPIIV 0.4 µM, normalized to PPIA and GAPDH and untreated cells, mean, n = 3–5
Method: as §1

[7] = system: TAS2R60; assay: RT-qPCR gene expression of TAS2R60 in HGT-1 cells; conditions: incubation 15/30/60/120 min, VAPFPEVF 17.5 µM, YFYPEL 0.03 µM, YQEPVLGPVRGPFPIIV 0.4 µM, expression not detectable with or without treatment
Method: as §1

[8] = system: TAS2R39; assay: RT-qPCR gene expression of TAS2R39 in HGT-1 cells; conditions: VAPFPEVF 17.5 µM, YFYPEL 0.03 µM, YQEPVLGPVRGPFPIIV 0.4 µM, normalized to PPIA and GAPDH and untreated cells, mean, n = 3–5
Method: as §1

[9] = system: TAS1R1; assay: RT-qPCR gene expression of TAS1R1 in HGT-1 cells
Method: as §1

[10] = 15/30/60/120 min, VAPFPEVF 17.5 µM, YQEPVLGPVRGPFPIIV 0.4 µM, n = 3

Row | Substance | change in gene expression of TAS2R46 ([1]; incubation 15 min) [fold change] | change in gene expression of TAS2R46 ([1]; incubation 30 min) [fold change] | change in gene expression of TAS2R46 ([1]; incubation 60 min) [fold change] | change in gene expression of TAS2R46 ([1]; incubation 120 min) [fold change] | change in gene expression of TAS2R9 ([3]; incubation 15 min) [fold change] | change in gene expression of TAS2R9 ([3]; incubation 30 min) [fold change] | change in gene expression of TAS2R9 ([3]; incubation 60 min) [fold change] | change in gene expression of TAS2R9 ([3]; incubation 120 min) [fold change] | reduction of the peptide-induced stimulation of proton secretion in TAS2R38kd cells [4] [%] | change of peptide-induced proton secretion, TAS2R38kd (in Figure 5E–G) [4] [%] | change in gene expression of TAS2R43 ([5]; incubation 15 min) [fold change] | change in gene expression of TAS2R43 ([5]; incubation 30 min) [fold change] | change in gene expression of TAS2R43 ([5]; incubation 60 min) [fold change] | change in gene expression of TAS2R43 ([5]; incubation 120 min) [fold change] | change in gene expression of TAS2R1 ([6]; incubation 15 min) [fold change] | change in gene expression of TAS2R1 ([6]; incubation 30 min) [fold change] | change in gene expression of TAS2R1 ([6]; incubation 60 min) [fold change] | change in gene expression of TAS2R1 ([6]; incubation 120 min) [fold change] | change in gene expression of TAS2R60 [7] | change in gene expression of TAS2R39 ([8]; incubation 15 min) [fold change] | also measured
1 | YFYPEL [bitter casein peptide αS1-CN144–149] | 1.70 | 0.73 | 1.01 | 1.30 | 0.66 | 2.64 | 3.01 | 1.41 | 62.8 ± 7.0 | -62.8 ±7.0 | 1.49 | 0.64 | 0.91 | 1.02 | 0.36 | 1.03 | 0.55 | 0.73 | not detected | 1.21 | change in expression of TAS1R3 ([2]; 0.03 µM YFYPEL, 15 min, p < 0.0001): significant increase; change in gene expression of TAS2R39 ([8]; incubation 30 min): 0.42 fold change; change in gene expression of TAS2R39 ([8]; incubation 60 min): 0.62 fold change; change in gene expression of TAS2R39 ([8]; incubation 120 min): 0.45 fold change; change in expression of TAS1R1 ([9]; 0.03 µM YFYPEL, 30 min, p < 0.001): decrease
2 | YQEPVLGPVRGPFPIIV [bitter casein peptide βA1/A2-CN193–209] | 0.69 | 1.73 | 1.30 | 1.06 | 0.43 | 0.44 | 1.91 | 0.73 | 45.2 ± 6.7 | -45.2 ±6.7 | 0.69 | 1.44 | 1.15 | 0.88 | 0.33 | 0.43 | 1.00 | 0.84 | not detected | 0.53 | change in expression of TAS1R3 [2, 10]: no significant effect; change in gene expression of TAS2R39 ([8]; incubation 30 min): 1.16 fold change; change in gene expression of TAS2R39 ([8]; incubation 60 min): 0.73 fold change; change in gene expression of TAS2R39 ([8]; incubation 120 min): 0.53 fold change; change in expression of TAS1R1 [9, 10]: no significant effect
3 | VAPFPEVF [bitter casein peptide αS1-CN25–32] | 0.62 | 1.47 | 0.85 | 1.95 | 1.73 | 1.08 | 2.31 | 0.99 | 37.5 ± 9.8 | -37.5 ±9.8 | 0.57 | 1.14 | 0.72 | 1.49 | 0.79 | 1.36 | 0.44 | 1.62 | not detected | 0.39 | change in expression of TAS1R3 [2, 10]: no significant effect; change in gene expression of TAS2R39 ([8]; incubation 30 min): 1.37 fold change; change in gene expression of TAS2R39 ([8]; incubation 60 min): 0.55 fold change; change in gene expression of TAS2R39 ([8]; incubation 120 min): 1.16 fold change; change in expression of TAS1R1 [9, 10]: no significant effect
